Experimental data from patent US20250361272A1, “HISTIDINE-BASED UNNATURAL AMINO ACID, ITS PRODUCTION AND USE” (priority 2024, published 2025).
Residues, ends and D or L forms follow the SMILES beside them.

Key:
Bacillus subtilis = experiment: Minimum inhibitory concentration (MIC) in Mueller-Hinton medium; type: cell-based; details: relative to Com2
Method: The experiments were performed in Mueller-Hinton medium in three independent experiments.
Analogously to P14, these amino acids have been incorporated into the parental sequence of Com2 and were partially tested on their antimicrobial activity against Gram-positive Bacillus Subtilis 3610 NCIB.

E. feacium = type: cell-based
S. aureus = experiment: MIC against ESKAPE pathogens in Mueller-Hinton medium; type: cell-based; details: Gram-positive
S. pneumoniae = type: cell-based
K. pneumoniae [1] = type: cell-based
A. baumannii [2] = type: cell-based
P. aeruginosa = type: cell-based
E. cloacae = type: cell-based
E. coli = experiment: MIC against ESKAPE pathogens in Mueller-Hinton medium; type: cell-based; details: Gram-negative
in vitro = details: human, 30% human serum in RPMI medium
Method: The experiment was performed in RPMI medium with 30% human serum at 37° C. Aliquots of the solution were analysed by HPLC-MS and the relative content was determined using an internal standard (phenol). The experiment was performed in three independent experiments.

[3] = Viability of HCT116 cells (cytotoxicity); type: cell-based; details: human; HCT116 cells in DMEM with 10% FBS; read-out: cytotoxic concentration CC50
Method: (§1) FIGS. 3A and 3B show the viability of HCT116 cells in DMEM with 10% FBS and 1% penicillin/streptomycin (FIG. 3A). The haemolysis experiments were performed with fresh blood from a healthy donor. Both experiments were performed in three independent experiments.
(§2) This is therefore >65-fold higher than the minimum inhibitory concentration against B. subtilis. […] Consequently, the P14 peptide as an antibiotic offers a distinct concentration window for therapeutic use.

HCT116 cells = experiment: Viability of HCT116 cells (cytotoxicity); type: cell-based; details: CC50 (HCT116) over MIC (B. subtilis)
Method: as §1, §2

human blood = experiment: Haemolysis experiment with fresh blood from a healthy donor; type: cell-based
Method: as §1, §2
3) Haemolysis experiments using human blood from a healthy donor show a haemolytic concentration >50-fold above the minimum inhibitory concentration against B. subtilis.

K. pneumoniae [4] = experiment: Infection model 1: treatment of K. pneumoniae-infected A549 lung cells; type: cell-based; details: at 8 μM, surviving bacterial colonies
Method: (§3) The number of surviving bacterial colonies after treatment with peptide is shown.
The peptide P14 was tested as an antibiotic against the treatment of K. pneumoniae-infected A549 lung cells.

A. baumannii [5] = experiment: Infection model 2: mouse skin infection with A. baumannii; type: in vivo; details: A. baumannii infected mice, superficial abrasion
Method: as §3
Infection of the mice was induced by superficial abrasion and incubation with the bacterial culture.

B. subtilis NCIB 3610 = experiment: Fluorescence microscopy of B. subtilis stained with HADA (peptidoglycan synthesis); type: cell-based
From the text: Scale bars represent 2 μm. BF are the bright light images.
Fluorescence microscopy of B. subtilis stained with HADA, showing newly synthesised peptidoglycan from control cells.

| SMILES | minimum inhibitory concentration (MIC) compared to the parent peptide (Com2) (Bacillus subtilis) | MIC (E. feacium) | MIC (S. aureus) | MIC (S. pneumoniae) | MIC (K. pneumoniae [1]) | MIC (A. baumannii [2]) | MIC (P. aeruginosa) | MIC (E. cloacae) | MIC (E. coli) | half-life (in vitro) | CC50 [3] | cytotoxic concentration relative to MIC against B. subtilis (HCT116 cells) | haemolytic concentration relative to the MIC value (human blood; HC50 over MIC (B. subtilis)) | haemolytic concentration HC50 (human blood; fresh blood from a healthy donor) | inhibition of bacterial growth in infected A549 lung cells (K. pneumoniae [4]) | potency in mouse skin infection compared to polymyxin B (A. baumannii [5]) | activity in mouse skin infection compared to control peptide P3 (A. baumannii [5]; surviving bacterial colonies) | HADA staining of newly synthesised peptidoglycan (B. subtilis NCIB 3610) |
| --- | --- | --- | --- | --- | --- | --- | --- | --- | --- | --- | --- | --- | --- | --- | --- | --- | --- | --- |
| CC(=O)Nc1ccc(C(=O)N[C@@H](CCCNC(=N)N)C(=O)N[C@@H](CCCNC(=N)N)C(=O)N[C@@H](Cc2c[n+](Cc3ccc4ccccc4c3)cn2Cc2ccc3ccccc3c2)C(=O)N[C@@H](Cc2c[n+](Cc3ccc4ccccc4c3)cn2Cc2ccc3ccccc3c2)C(=O)N[C@@H](CCCNC(=N)N)C(=O)N[C@@H](Cc2ccccc2)C(N)=O)cc1 [Peptide P14, Aba-RR-Hdn-Hdn-RF-CONH2] | > 24 fold | 0.8 µM | 1.6 µM | 2.2 µM | 12.5 µM | 6.3 µM | 12.5 µM | 25 µM | 25 µM | > 840 min | 50.4 ± 4.48 µM | > 65 fold | > 50 fold | 38.62 ± 2.58 µM | complete inhibition of bacterial growth | can be compared with that of the commonly used polymyxin B | higher activity than the control peptide P3 | inhibits bacterial polyglycan synthesis |
| CN[C@H](CC(C)C)C(=O)N[C@H]1C(=O)N[C@@H](CC(N)=O)C(=O)N[C@H]2C(=O)N[C@H]3C(=O)N[C@H](C(=O)N[C@H](C(=O)O)c4cc(O)cc(O)c4-c4cc3ccc4O)[C@H](O)c3ccc(c(Cl)c3)Oc3cc2cc(c3O[C@@H]2O[C@H](CO)[C@@H](O)[C@H](O)[C@H]2O[C@H]2C[C@](C)(N)[C@H](O)[C@H](C)O2)Oc2ccc(cc2Cl)[C@H]1O [vancomycin, reference compound] | – | – | – | – | – | – | – | – | – | – | – | – | – | – | – | – | – | no HADA binding to the cell periphery is visible |
| N=C(N)NCCC[C@H](NC(=O)[C@H](Cc1c[nH]c2ccccc12)NC(=O)[C@H](Cc1c[nH]c2ccccc12)NC(=O)[C@H](CCCNC(=N)N)NC(=O)[C@@H](N)CCCNC(=N)N)C(=O)N[C@@H](Cc1ccccc1)C(N)=O [Com2, H2N-RRWWRF-CONH2, reference compound] (H-RRWWRF-NH2) | – | – | – | – | – | – | – | – | – | ~24 min | – | – | – | – | – | – | – | – |
